Values quoted from earlier work in patent US20090196889A1, “CONTROLLED ABSORPTION OF STATINS IN THE INTESTINE” (DEXCEL PHARMA TECHNOLOGIES LTD., priority 2004, published 2009).

How the values were obtained:
HMG-CoA reductase = biological target: T1, HMG-CoA reductase (Homo sapiens, UniProt P04035); conditions: relative to the beta-hydroxy acid form considered as the drug
T1 sequence (P04035 1-888): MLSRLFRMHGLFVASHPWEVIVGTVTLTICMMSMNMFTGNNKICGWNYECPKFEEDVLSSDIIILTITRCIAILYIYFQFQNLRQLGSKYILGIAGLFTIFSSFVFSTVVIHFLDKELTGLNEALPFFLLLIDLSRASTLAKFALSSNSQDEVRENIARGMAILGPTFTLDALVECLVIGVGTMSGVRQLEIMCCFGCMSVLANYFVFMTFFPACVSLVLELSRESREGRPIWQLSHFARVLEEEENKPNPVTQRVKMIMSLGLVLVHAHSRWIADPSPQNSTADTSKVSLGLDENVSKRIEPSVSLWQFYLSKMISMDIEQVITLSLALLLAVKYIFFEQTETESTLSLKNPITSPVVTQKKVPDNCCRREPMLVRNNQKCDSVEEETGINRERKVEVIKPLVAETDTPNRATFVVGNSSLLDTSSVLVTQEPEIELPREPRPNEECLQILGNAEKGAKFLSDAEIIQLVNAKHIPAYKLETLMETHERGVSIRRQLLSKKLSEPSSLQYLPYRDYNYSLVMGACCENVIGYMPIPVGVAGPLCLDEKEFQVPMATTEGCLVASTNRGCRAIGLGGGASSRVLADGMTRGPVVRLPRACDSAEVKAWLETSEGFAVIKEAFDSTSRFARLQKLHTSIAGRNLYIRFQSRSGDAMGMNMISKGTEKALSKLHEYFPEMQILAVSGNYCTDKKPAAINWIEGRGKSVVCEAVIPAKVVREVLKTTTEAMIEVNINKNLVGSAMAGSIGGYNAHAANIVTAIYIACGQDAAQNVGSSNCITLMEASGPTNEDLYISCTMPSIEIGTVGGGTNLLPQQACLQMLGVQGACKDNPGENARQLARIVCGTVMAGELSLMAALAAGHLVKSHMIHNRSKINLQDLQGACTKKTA

[1] = test system: plasma proteins, primarily albumin; conditions: simvastatin and its active acid forms

HMG-CoA reductase activity retained (HMG-CoA reductase) | bound to plasma proteins, primarily to albumin [1] | SMILES
~50% |  | CCC(C)(C)C(=O)OC1CC(C)(O)C=C2C=CC(C)C(CCC3CC(O)CC(=O)O3)C21 (stereo not drawn) [6-beta-hydroxy simvastatin]
approximately 40% |  | CCC(C)(C)C(=O)OC1CC(CO)C=C2C=CC(C)C(CCC3CC(O)CC(=O)O3)C21 (stereo not drawn) [6-beta-hydroxymethyl]
 | more than 95% | CCC(C)(C)C(=O)O[C@H]1C[C@@H](C)C=C2C=C[C@H](C)[C@H](CC[C@@H]3C[C@@H](O)CC(=O)O3)[C@H]21 [simvastatin]
